Assay [1] deals with T1, F876L mutant Androgen Receptor (AR-F876L) (Homo sapiens, UniProt P10275, F877L).
T1 construct: expressed in transfected cells; host or cells: LNCaP
T1 sequence (P10275 1-920 F877L): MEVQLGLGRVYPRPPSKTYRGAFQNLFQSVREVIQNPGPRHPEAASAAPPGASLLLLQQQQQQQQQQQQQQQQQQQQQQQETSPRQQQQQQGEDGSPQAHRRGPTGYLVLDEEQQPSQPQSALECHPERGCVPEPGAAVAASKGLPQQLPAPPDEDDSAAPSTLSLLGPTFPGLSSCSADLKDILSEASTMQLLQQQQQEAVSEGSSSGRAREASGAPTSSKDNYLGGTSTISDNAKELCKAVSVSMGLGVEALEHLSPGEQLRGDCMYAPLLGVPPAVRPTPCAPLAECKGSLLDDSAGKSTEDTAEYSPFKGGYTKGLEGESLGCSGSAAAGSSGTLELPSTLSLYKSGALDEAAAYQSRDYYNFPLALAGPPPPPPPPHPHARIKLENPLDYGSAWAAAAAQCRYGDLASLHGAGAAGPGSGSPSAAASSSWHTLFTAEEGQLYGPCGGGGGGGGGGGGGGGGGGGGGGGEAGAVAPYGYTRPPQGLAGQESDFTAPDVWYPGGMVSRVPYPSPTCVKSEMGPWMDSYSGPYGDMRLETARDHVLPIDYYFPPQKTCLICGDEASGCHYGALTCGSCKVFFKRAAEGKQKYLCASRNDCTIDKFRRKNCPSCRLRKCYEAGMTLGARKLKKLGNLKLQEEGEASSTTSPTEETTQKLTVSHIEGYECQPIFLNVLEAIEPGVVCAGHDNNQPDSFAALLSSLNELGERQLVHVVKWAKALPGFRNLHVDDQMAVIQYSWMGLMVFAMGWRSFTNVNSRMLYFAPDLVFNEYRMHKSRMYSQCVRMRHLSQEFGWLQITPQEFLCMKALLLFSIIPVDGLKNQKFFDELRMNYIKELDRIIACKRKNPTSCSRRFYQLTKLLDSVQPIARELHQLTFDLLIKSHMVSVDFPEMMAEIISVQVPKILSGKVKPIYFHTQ
The assay is described as follows: AR reporter assay, LNCaP-AR-F876L AG (agonist mode). The assay is classed as cell-based. Particulars: for Emax: read-out: LNCaP-AR-F876L AG MAX % Stim. The text has this: (§1) LNCaP AR (cs) and LNCaP F876L luciferase cell lines were generated by transduction of each cell line (description of cell line generation Joseph J D, Lu N, Qian J, Sensintaffar J, Shao G, Brigham D, Moon M, Maneval E C, Chen I, Darimont B, Hager J H. A clinically relevant androgen receptor mutation confers resistance to second-generation antiandrogens enzalutamide and ARN-509. Cancer Discov 2013; 3:1020-1029) with an Androgen Response Element Firefly Luciferase lentiviral construct at an MOI (multiplicity of infection) of 50 following the manufacturer's instructions (Qiagen). A stable pooled-population cell line was generated using puromycin (Life Technologies) selection at 1:10,000 v/v. The protocol below was used for both cell lines and for testing of the compounds of Formula (I) of the present invention.
(§2) LNCaP cells were grown to about 80% confluence, media removed and cells rinsed in Hank's balanced salt solution prior to separation from the plate with 0.05% Trypsin EDTA. Cells were lifted and trypsin negated in complete CSS (charcoal stripped serum) culture media. CSS was maintained on cells for 24 h prior to assay, at which time 5,000 cells/[…] were seeded in Greiner 384 well White/White Tissue Culture Treated Plates and incubated for a further 1-2 hours at 37° C., 5% CO2, prior to addition of 10 μL of 4× Test Compounds (compounds described herein) or Assay Controls (all diluted in complete media containing 10% css). A further 10 μL of 4× R-1881 Agonist Challenge (antagonist assay) or Buffer (agonist assay) was then added (all diluted in complete media containing 10% css). Agonist challenge was at 400 pM for WT assay and 600 pM for F876L assay. Plates containing cells and compounds herein were incubated for a further 20-24 hours at 37° C., 5% CO2 before addition of 40 μL/well of Steady-Glo Luciferase Assay System Reagent (Promega#E2520). After 1 h, plates were read for luminescence on a BMG Pherastar.
((Sample RLU−Ave Low Control RLU[DMSO/Buffer])/(Ave High Control RLU [1 μM R-1881]—Ave Low Control RLU[DMSO/Buffer]))*100.
(§3) EC/IC50 calculations were achieved utilizing calculated RLU data and data fitting macros. Data were fit using least-squares methods to the following formula: […]
(§4) As used herein: • pIC50 is defined as −Log10(IC50 expressed in [Molar]). • pEC50 is defined as −Log10(EC50 expressed in [Molar]). • MAX % Inh is defined as the maximum % inhibition of R1881 control response observed for a compound over the tested concentration range. • MAX % Stim is defined as the maximum % stimulation (agonist response) observed for a compound over the tested concentration range. • LNCaP-AR-wt ANT refers to the reporter assay using LNCaP cells stably transfected with the Androgen Response Element Firefly Luciferase lentiviral construct and wild-type Androgen Receptor (AR-wt) in Antagonist mode. • LNCaP-AR-wt AG refers to the reporter assay using LNCaP cells stably transfected with the Androgen Response Element Firefly Luciferase lentiviral construct and wild-type Androgen Receptor (AR-wt) in Agonist mode. • LNCaP-AR-F876L ANT refers to the reporter assay using LNCaP cells stably transfected with the Androgen Response Element Firefly Luciferase lentiviral construct and F876L mutant Androgen Receptor (AR-F876L) in Antagonist mode. • LNCaP-AR-F876L AG refers to the reporter assay using LNCaP cells stably transfected with the Androgen Response Element Firefly Luciferase lentiviral construct and F876L mutant Androgen Receptor (AR-F876L) in Agonist mode.
For orientation: Reporter assays use an easily measured gene product as a stand-in for the process of interest.

The target of assay [2] is T1, F876L mutant Androgen Receptor (AR-F876L). As to the kind of experiment: AR reporter assay, LNCaP-AR-F876L ANT (antagonist mode). The assay is classed as cell-based. The note with it: for Emax: read-out: LNCaP-AR-F876L ANT MAX % Inh.
Excerpt: as §1, §2
Agonist challenge: R-1881 (Metribolone)—Agonist
Antagonist control (low control): 5-(5-(4-((1-Methylpiperidin-4-yl)oxy)phenyl)-8-oxo-6-thioxo-5,7-diazaspiro[3.4]octan-7-yl)-3-(trifluoromethyl)picolinonitrile (WO 2011/103202, EXAMPLE 19, Compound 129, CAS #1332390-06-3).
(1−(Sample RLU−Ave Low Control RLU[10 μM Antagonist Control])/(Ave High Control RLU [400 pM R-1881]−Ave Low Control RLU[10 μM Antagonist Control]))*100.
as §3, §4

The mark [3] stands for this setting: antagonist mode, 600 pM R-1881 challenge, luciferase reporter, -Log10(IC50 in Molar), read-out: LNCaP-AR-F876L ANT pIC50 (converted).

The structures appear in SMILES notation. Counter-ions that a name gives are not always drawn. Like-named read-outs stand apart in the source and are kept apart here.

With `N#Cc1ccc(N2C(=O)C3(CCC3)N(c3ccc(OC4CCNCC4)nc3)C2=S)cc1Cl` [Compound 23, 2-Chloro-4-(8-oxo-5-(6-(piperidin-4-yloxy)pyridin-3-yl)-6-thioxo-5,7-diazaspiro[3.4]octan-7-yl)benzonitrile hydrochloride], in assay [1], the EC50 is greater than 15.1 µM and the Emax was determined as 0.3%. Besides, in assay [2], the IC50 was 50.1 nM and the Emax was found to be 103%.
Consider `N#Cc1ccc(N2C(=O)C3(CCC3)N(c3ccc(OC4CCNCC4)cc3)C2=S)cc1Cl` [Compound 21, 2-Chloro-4-(8-oxo-5-(4-(piperidin-4-yloxy)phenyl)-6-thioxo-5,7-diazaspiro[3.4]octan-7-yl)benzonitrile], for which the EC50 in assay [1] was greater than 15.1 µM. Further, the Emax in assay [1] is 0.2%; in assay [2] it was 104%. Besides, the IC50 in assay [2] (setting [3]) is 200 nM.
For `Cc1cc(N2C(=O)C3(CCC3)N(c3ccc(OC4CCN(C)CC4)cc3)C2=S)ccc1C#N` [Compound 17, 2-Methyl-4-(5-(4-((1-methylpiperidin-4-yl)oxy)phenyl)-8-oxo-6-thioxo-5,7-diazaspiro[3.4]octan-7-yl)benzonitrile], in assay [1] (agonist mode (buffer, no R-1881), -Log10(EC50 in Molar), read-out: LNCaP-AR-F876L AG pEC50 (converted)), the EC50 is greater than 15.1 µM. For the same molecule, the Emax in assay [1] came out at 0.2%; in assay [2], 101%. In addition, in assay [2] (setting [3]), the IC50 was 129 nM.
On to `CC1(C)C(=O)N(c2ccc(C#N)c(C(F)(F)F)c2)C(=S)N1c1ccc(OC2CCNCC2)nc1` [Compound 3, 4-(4,4-Dimethyl-5-oxo-3-(6-(piperidin-4-yloxy)pyridin-3-yl)-2-thioxoimidazolidin-1-yl)-2-(trifluoromethyl)benzonitrile hydrochloride], for which, in assay [1], the EC50 is greater than 15.1 µM and the Emax came out at 0.3%. In addition, in assay [2], the IC50 is 40.7 nM and the Emax is 102%.
As for `CN1CCC(Oc2ccc(N3C(=S)N(c4ccc(C#N)c(C(F)(F)F)c4)C(=O)C34CCC4)cc2)CC1` [Compound 12, 4-(5-(4-((1-Methylpiperidin-4-yl)oxy)phenyl)-8-oxo-6-thioxo-5,7-diazaspiro[3.4]octan-7-yl)-2-(trifluoromethyl)benzonitrile], in assay [1], the EC50 was greater than 15.1 µM and the Emax is 0.2%. In assay [2], the IC50 is 166 nM and the Emax was determined as 101%.
For `CC1(C)C(=O)N(c2ccc(C#N)c(C(F)(F)F)c2)C(=S)N1c1cnc(OC2CCNCC2)nc1` [Compound 5, 4-(4,4-Dimethyl-5-oxo-3-(2-(piperidin-4-yloxy)pyrimidin-5-yl)-2-thioxoimidazolidin-1-yl)-2-(trifluoromethyl)benzonitrile], in assay [1], the EC50 was greater than 15.1 µM and the Emax worked out at 0%. Moreover, in assay [2], the IC50 is 229 nM and the Emax was 101%.
`COc1cc(N2C(=O)C3(CCC3)N(c3ccc(OC4CCN(C)CC4)nc3)C2=S)ccc1C#N` [Compound 20, 2-Methoxy-4-(5-(6-((1-methylpiperidin-4-yl)oxy)pyridin-3-yl)-8-oxo-6-thioxo-5,7-diazaspiro[3.4]octan-7-yl)benzonitrile]: in assay [1], the EC50 was greater than 15.1 µM and the Emax worked out at 0.3%. Also, the IC50 in assay [2] (setting [3]) was 145 nM. For the same molecule, the Emax in assay [2] came to 100%.
On to `CC1(C)C(=O)N(c2ccc(C#N)c(Cl)c2)C(=S)N1c1ccc(OC2CCNCC2)cc1` [Compound 7, 2-Chloro-4-(4,4-dimethyl-5-oxo-3-(4-(piperidin-4-yloxy)phenyl)-2-thioxoimidazolidin-1-yl)benzonitrile hydrochloride], for which, in assay [1], the EC50 is greater than 15.1 µM and the Emax is -0.1%. Also, in assay [2], the IC50 is 38 nM and the Emax is 101%.
For `N#Cc1ccc(N2C(=O)C3(CCC3)N(c3ccc(OC4CCNCC4)nc3)C2=S)cc1C(F)(F)F` [Compound 13, 4-(8-Oxo-5-(6-(piperidin-4-yloxy)pyridin-3-yl)-6-thioxo-5,7-diazaspiro[3.4]octan-7-yl)-2-(trifluoromethyl)benzonitrile hydrochloride] the same measures were greater than 15.1 µM, 0%, 57.5 nM and 102%.
For `CN1CCC(Oc2ccc(N3C(=S)N(c4ccc(C#N)c(Cl)c4)C(=O)C3(C)C)cc2)CC1` [Compound 8, 2-Chloro-4-(4,4-dimethyl-3-(4-((1-methylpiperidin-4-yl)oxy)phenyl)-5-oxo-2-thioxoimidazolidin-1-yl)benzonitrile hydrochloride], in that order: greater than 15.1 µM, 0.1%, 58.9 nM and 101%.
For `CN1CCC(Oc2ccc(N3C(=S)N(c4ccc(C#N)c(C(F)(F)F)c4)C(=O)C3(C)C)cn2)CC1` [Compound 4, 4-(4,4-Dimethyl-3-(6-((1-methylpiperidin-4-yl)oxy)pyridin-3-yl)-5-oxo-2-thioxoimidazolidin-1-yl)-2-(trifluoromethyl)benzonitrile hydrochloride], in that order: greater than 15.1 µM, 0.1%, 83.2 nM and 102%.
As for `CN1CCC(Oc2ncc(N3C(=S)N(c4ccc(C#N)c(C(F)(F)F)c4)C(=O)C3(C)C)cn2)CC1` [Compound 6, 4-(4,4-Dimethyl-3-(2-((1-methylpiperidin-4-yl)oxy)pyrimidin-5-yl)-5-oxo-2-thioxoimidazolidin-1-yl)-2-(trifluoromethyl)benzonitrile], in assay [1], the EC50 was greater than 15.1 µM and the Emax was -0.1%. For the same molecule, in assay [2] (setting [3]), the IC50 is 135 nM. Also, the Emax in assay [2] was found to be 101%.
